target: human chemokine receptor CXCR7 (Homo sapiens (Human), UniProt P25106); test: Tango CXCR7-bla U2OS beta-arrestin recruitment assay (beta-lactamase reporter, FRET), antagonism of CXCL12/SDF1-α; type: cell-based; settings: antagonistic effect on CXCR7; Tango CXCR7-bla U2OS cells, CXCL12/SDF1-α at its EC80;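 also: compounds preincubated 15 min before CXCL12 addition, then 22 h at 37 °C, FRET emission ratio read with CCF4-AM substrate after 2 h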
Sequence (P25106 whole entry): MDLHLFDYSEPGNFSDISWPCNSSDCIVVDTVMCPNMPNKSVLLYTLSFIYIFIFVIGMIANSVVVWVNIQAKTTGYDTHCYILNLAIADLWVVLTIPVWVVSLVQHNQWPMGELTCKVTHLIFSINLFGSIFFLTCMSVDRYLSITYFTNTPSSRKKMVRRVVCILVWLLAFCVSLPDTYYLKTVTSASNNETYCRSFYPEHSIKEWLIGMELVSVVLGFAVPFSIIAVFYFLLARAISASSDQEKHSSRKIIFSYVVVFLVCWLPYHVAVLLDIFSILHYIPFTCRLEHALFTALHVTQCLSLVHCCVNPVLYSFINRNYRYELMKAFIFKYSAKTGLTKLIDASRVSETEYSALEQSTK

SMILES	IC50 [nM]
Cc1cccc([C@H](C)NC(=O)[C@@H]2CN(C3CCCCC3)CC[C@H]2NC(=O)c2cc(-c3ccc(F)cc3F)on2)n1 (single isomer, unassigned) [Example 1.188c, (3R*,4R*)-1-Cyclohexyl-4-{[5-(2,4-difluoro-phenyl)-isoxazole-3-carbonyl]-amino}-piperidine-3-carboxylic acid [(S)-1-(6-methyl-pyridin-2-yl)-ethyl]-amide]	179
O=C(N[C@H]1CCN(CC2CC2)C[C@@H]1C(=O)NC1(c2ncccn2)CC1)c1cc(-c2ccc(Cl)cc2Cl)on1 (single isomer, unassigned) [Example 1.189a, (3S,4S)-1-Cyclopropylmethyl-4-{[5-(2,4-dichloro-phenyl)-isoxazole-3-carbonyl]-amino}-piperidine-3-carboxylic acid (1-pyrimidin-2-yl-cyclopropyl)-amide or (3R,4R)-1-Cyclopropylmethyl-4-{[5-(2,4-dichloro-phenyl)-isoxazole-3-carbonyl]-amino}-piperidine-3-carboxylic acid (1-pyrimidin-2-yl-cyclopropyl)-amide]	15
O=C(N[C@@H]1CCN(CC2CC2)C[C@H]1C(=O)NC1(c2ncccn2)CC1)c1cc(-c2ccc(C(F)(F)F)cc2)on1 (single isomer, unassigned) [Example 1.192a, (3R*,4R*)-1-Cyclopropylmethyl-4-{[5-(4-trifluoromethyl-phenyl)-isoxazole-3-carbonyl]-amino}-piperidine-3-carboxylic acid (1-pyrimidin-2-yl-cyclopropyl)-amide]	854
O=C(N[C@@H]1CCN(CC2CC2)C[C@H]1C(=O)NC1(c2ncccn2)CC1)c1cc(-c2ccc(C(F)(F)F)cc2)on1 (single isomer, unassigned) [Example 1.192b, (3R*,4R*)-1-Cyclopropylmethyl-4-{[5-(4-trifluoromethyl-phenyl)-isoxazole-3-carbonyl]-amino}-piperidine-3-carboxylic acid (1-pyrimidin-2-yl-cyclopropyl)-amide]	122
O=C(N[C@@H]1CCN(CC2CC2)C[C@H]1C(=O)NC1(c2ncccn2)CC1)c1cc(-c2cccc(C(F)(F)F)c2)on1 (single isomer, unassigned) [Example 1.193a, (3R,4R)-1-Cyclopropylmethyl-4-{[5-(3-trifluoromethyl-phenyl)-isoxazole-3-carbonyl]-amino}-piperidine-3-carboxylic acid (1-pyrimidin-2-yl-cyclopropyl)-amide or (3S,4S)-1-cyclopropylmethyl-4-{[5-(3-trifluoromethyl-phenyl)-isoxazole-3-carbonyl]-amino}-piperidine-3-carboxylic acid (1-pyrimidin-2-yl-cyclopropyl)-amide]	97
O=C(N[C@@H]1CCN(CC2CC2)C[C@H]1C(=O)NC1(c2ncccn2)CC1)c1cc(-c2ccc(F)c(F)c2F)on1 (single isomer, unassigned) [Example 1.194a, (3R,4R)-1-Cyclopropylmethyl-4-{[5-(2,3,4-trifluoro-phenyl)-isoxazole-3-carbonyl]-amino}-piperidine-3-carboxylic acid (1-pyrimidin-2-yl-cyclopropyl)-amide or (3S,4S)-1-cyclopropylmethyl-4-{[5-(2,3,4-trifluoro-phenyl)-isoxazole-3-carbonyl]-amino}-piperidine-3-carboxylic acid (1-pyrimidin-2-yl-cyclopropyl)-amide]	13
CN(C)C(=O)[C@@H]1CN(C2CCCCC2)CC[C@H]1NC(=O)c1nnc(-c2ccc(F)cc2F)o1 (single isomer, unassigned) [Example 3.003a, (3R*,4R*)-1-Cyclohexyl-4-{[5-(2,4-difluoro-phenyl)-[1,3,4]oxadiazole-2-carbonyl]-amino}-piperidine-3-carboxylic acid dimethylamide]	771
CN(C)C(=O)[C@@H]1CN(C2CCCCC2)CC[C@H]1NC(=O)c1nnc(-c2ccc(F)cc2F)o1 (single isomer, unassigned) [Example 3.003b, (3R*,4R*)-1-Cyclohexyl-4-{[5-(2,4-difluoro-phenyl)-[1,3,4]oxadiazole-2-carbonyl]-amino}-piperidine-3-carboxylic acid dimethylamide]	54
O=C(N[C@H]1CCN(CC2CC2)C[C@@H]1C(=O)NC1(c2ccccn2)CC1)c1nnc(-c2ccc(F)cc2F)o1 (single isomer, unassigned) [Example 3.016a, (3S,4S)-1-Cyclopropylmethyl-4-{[5-(2,4-difluoro-phenyl)-[1,3,4]oxadiazole-2-carbonyl]-amino}-piperidine-3-carboxylic acid (1-pyridin-2-yl-cyclopropyl)-amide or (3R,4R)-1-Cyclopropylmethyl-4-{[5-(2,4-difluoro-phenyl)-[1,3,4]oxadiazole-2-carbonyl]-amino}-piperidine-3-carboxylic acid (1-pyridin-2-yl-cyclopropyl)-amide]	90
O=C(N[C@@H]1CCN(CC2CC2)C[C@H]1C(=O)NC1(c2ncccn2)CC1)c1cc(-c2c(F)cc(F)cc2F)on1 (single isomer, unassigned) [Example 3.020a, (3R*,4R*)-1-Cyclopropylmethyl-4-{[5-(2,4,6-trifluoro-phenyl)-isoxazole-3-carbonyl]-amino}-piperidine-3-carboxylic acid (1-pyrimidin-2-yl-cyclopropyl)-amide]	271
O=C(N[C@@H]1CCN(CC2CC2)C[C@H]1C(=O)NC1(c2ncccn2)CC1)c1noc(-c2ccc(F)cc2F)c1F (single isomer, unassigned) [Example 3.022a, (3R,4R)-1-Cyclopropylmethyl-4-{[5-(2,4-difluoro-phenyl)-4-fluoro-isoxazole-3-carbonyl]-amino}-piperidine-3-carboxylic acid (1-pyrimidin-2-yl-cyclopropyl)-amide or (3S,4S)-1-cyclopropylmethyl-4-{[5-(2,4-difluoro-phenyl)-4-fluoro-isoxazole-3-carbonyl]-amino}-piperidine-3-carboxylic acid (1-pyrimidin-2-yl-cyclopropyl)-amide]	25
COc1ccccc1C(C)NC(=O)[C@H]1CN(CC2CC2)CC[C@@H]1NC(=O)c1cc(-c2ccc(F)cc2F)on1 (single isomer, unassigned) [Example 4.072a]	8
O=C(N[C@@H]1CCN(CC2CC2)C[C@H]1C(=O)NC1(c2ncccn2)CC1)c1cc(-c2c(F)cc(F)cc2F)on1 (single isomer, unassigned) [Example 30.20b, (3R*,4R*)-1-Cyclopropylmethyl-4-{[5-(2,4,6-trifluoro-phenyl)-isoxazole-3-carbonyl]-amino}-piperidine-3-carboxylic acid (1-pyrimidin-2-yl-cyclopropyl)-amide]	4
COC(=O)C1CN(C2CCCCC2)CCC1NC(=O)c1noc(-c2ccc(F)c(F)c2)n1 (stereo not shown) [BB 1.18c]	119
CN(C)C(=O)[C@@H]1CN(CC2CC2)CC[C@H]1NC(=O)c1cc(-c2c(F)cc(F)cc2F)on1 [Example 1.1]	128

Results, then the compound that gave them:

IC50 [nM]	SMILES
198	Cc1cnc(CNC(=O)[C@@H]2CN(C3CCCCC3)CC[C@H]2NC(=O)c2cc(-c3ccc(F)cc3F)on2)s1 [Example 1.02]
223	O=C(N[C@@H]1CCN(C2CCCCC2)C[C@H]1C(=O)NCc1ccncc1)c1cc(-c2ccc(F)cc2F)on1 [Example 1.05]
727	CC(CNC(=O)[C@@H]1CN(C2CCCCC2)CC[C@H]1NC(=O)c1cc(-c2ccc(F)cc2F)on1)c1ccccc1 (stereo partly shown) [Example 1.06]
559	O=C(N[C@@H]1CCN(C2CCCCC2)C[C@H]1C(=O)N1CCC(c2ccccc2)C1)c1cc(-c2ccc(F)cc2F)on1 (stereo partly shown) [Example 1.07]
564	CC(C)(CC(F)(F)F)NC(=O)[C@@H]1CN(C2CCCCC2)CC[C@H]1NC(=O)c1cc(-c2ccc(F)cc2F)on1 [Example 1.08]
35	C[C@@H](NC(=O)[C@@H]1CN(C2CCCCC2)CC[C@H]1NC(=O)c1cc(-c2ccc(F)cc2F)on1)c1cnccn1 [Example 1.09]
535	COCC(C)(C)NC(=O)[C@@H]1CN(CC2CC2)CC[C@H]1NC(=O)c1cn(-c2ccc(F)cc2F)nn1 [Example 1.11]
789	C[C@@H]1CCC[C@H]1N1CC[C@@H](NC(=O)c2cn(-c3ccc(F)cc3F)nn2)[C@H](C(=O)N[C@H](C)c2ccccn2)C1 [Example 1.12]
140	C[C@@H](NC(=O)[C@@H]1CN(C2CCCC2)CC[C@H]1NC(=O)c1cc(-c2c(F)cc(F)cc2F)on1)c1cnccn1 [Example 1.13]
358	C[C@@H](NC(=O)[C@@H]1CN(C2CCCCC2)CC[C@H]1NC(=O)c1cc(-c2ccc(F)cc2F)no1)C1CCC1 [Example 1.14]
155	C[C@@H]1CCC[C@H]1N1CC[C@@H](NC(=O)c2cc(-c3ccc(F)cc3F)no2)[C@H](C(=O)N(C)C)C1 [Example 1.15]

same assay, conditions: antagonistic effect on CXCR7; Tango CXCR7-bla U2OS cells; CXCL12/SDF1-α at its EC80; geometric mean

SMILES	IC50 [nM]
O=C(N[C@@H]1CCN(CC2CC2)C[C@H]1C(=O)NC1(c2ncccn2)CC1)c1cc(C2CC2)on1 (single isomer, unassigned) [Reference Compound 1a, (3R,4R)-4-[(5-Cyclopropyl-isoxazole-3-carbonyl)-amino]-1-cyclopropylmethyl-piperidine-3-carboxylic acid (1-pyrimidin-2-yl-cyclopropyl)-amide or (3S,4S)-4-[(5-cyclopropyl-isoxazole-3-carbonyl)-amino]-1-cyclopropylmethyl-piperidine-3-carboxylic Acid (1-pyrimidin-2-yl-cyclopropyl)-amide, reference compound]	> 10000
O=C(N[C@@H]1CCN(CC2CC2)C[C@H]1C(=O)NC1(c2ncccn2)CC1)c1cc(C2CC2)on1 (single isomer, unassigned) [Reference Compound 1b, (3R,4R)-4-[(5-Cyclopropyl-isoxazole-3-carbonyl)-amino]-1-cyclopropylmethyl-piperidine-3-carboxylic acid (1-pyrimidin-2-yl-cyclopropyl)-amide or (3S,4S)-4-[(5-cyclopropyl-isoxazole-3-carbonyl)-amino]-1-cyclopropylmethyl-piperidine-3-carboxylic Acid (1-pyrimidin-2-yl-cyclopropyl)-amide, reference compound]	> 10000
